No end group written: not given here.
Columns and labels:
H358 = assay: In vitro functional assays in H358 over-expressing full-length OPNa; format: cell-based; conditions: H358, addition of the exon 4 peptide
Procedure: (§1) In vitro invasion, migration, proliferation and soft agar colony formation assays were performed using the H358, A549 and H460 cell lines as previously described (Goparaju et al. “Functional Heterogeneity of Osteopontin Isoforms in Non-small Cell Lung Cancer,” J Thorac Oncol 5:1516-23 (2010), which is hereby incorporated by reference in its entirety) with 100 nM of exon 4 peptide or scrambled sham peptide in experimental medium. Experiments were performed in triplicates and comparisons of effect were made between peptide and sham within each cell line.
The effects of mutated OPN and the exon 4 peptide in H358, a NSCLC cell line with low endogenous OPN expression, were insightful. This cell line has low malignant potential; however, malignant properties are increased by over-expression of full-length OPNa, but not by over-expression of OPNc or the PDAV-deleted mutant. Further, the tumorigenic effects of full-length OPNa over-expression are abolished by addition of the exon 4 peptide in this cell line.

[1] = test system: H358, A549 and H460 cell lines; assay: Apoptosis assay; format: cell-based
[2] = test system: H358, A549 and H460 cell lines; assay: In vitro proliferation assay; format: cell-based
Procedure: as §1

[3] = test system: EMT targets in H358, A549 and H460 cell lines; assay: Relative expression of EMT targets by quantitative RT-PCR in peptide treated cells; format: cell-based
Description: Here, mRNA was extracted from peptide treated cells and the relative expression of EMT targets evaluated by quantitative RT-PCR.

A549 cells = assay: Cisplatin sensitivity assay (Cell Titer Blue survival); format: cell-based; conditions: 100 nM peptide, cisplatin concentrations of 0.1-0.8 μM/ml, 48 h, FIG. 7E
Procedure: The effect of exon 4 peptide on sensitivity to cisplatin was evaluated by plating 10,000 A549 cells/well in a 96-well plate in triplicates. Five hours later, the medium was changed to DMEM containing 100 nM of exon 4 peptide, 100 nM of scrambled sham peptide, or no peptide. Fifteen minutes later, the medium was changed to DMEM containing […] of cisplatin for 48 h at 37° C. The cells were then assayed for survival by adding […] of Cell Titer Blue reagent for 1 h. The fluorescence was read at 560/590λ.

[4] = test system: H358, A549 and H460 cell lines; assay: In vitro invasion assay; format: cell-based
Procedure: as §1

NSCLC cell surface = NSCLC cell surface binding / competitive binding assay with fluorescent (FAM) labeled peptide; format: cell-based; conditions: for binding of fluorescently labeled peptide to the surface of the NSCLC cell lines: 100 nM FAM labeled peptide, 1 hour, FIG. 6A; for displacement of fluorescent labeled exon 4 peptide from the NSCLC cell surface by competitor: recombinant protein as competitor, 30 minutes, FIGS. 6B, 6C
Procedure: More particularly, the peptide mimic sequence was selected that contained the PDAV region, along with a scrambled sham of the same length. Peptides were constructed and fluorescent (FAM) labeled by Think peptides (Proimmune, Sarasota, Fla.). NSCLC cell surface binding was assayed by seeding ten thousand NSCLC cells per well in a 96-well plate and allowing them to sit for overnight at 37° C. The cells were treated with 100 nM of FAM labeled Exon4 and FAM labeled scrambled peptide for 1 hour and then gently washed with 0.1% BSA in PBS for three times followed by treating with recombinant Osteopontin at 1 uM, 500 nM, 250 nM, 125 nM, 62.5 nM and 31.25 nM for 30 minutes. The cells are then washed thrice with 0.1% BSA in PBS and measured the fluorescence at […].

[5] = biological target: membrane-associated protein complex on NSCLC cells (un-described cell surface receptor for OPN exon 4; H358, A549 and H460 cell surface); assay: cell-based or functional assay
[6] = H358 cells with low endogenous OPN expression

With “KYPDAVATWLNPDPSQK (also: FAM label) [exon 4 peptide]” the “tumorigenic effects of full-length OPNa over-expression” value (H358) was “abolished”, the apoptosis [1, 6] was “less impact” and the apoptosis ([1]; cells with high endogenous OPN expression (A549 and H460), peptide in media, FIG. 7C) was “increased”. The proliferation [2, 6] was “less impact”, the proliferation ([2]; cells with high endogenous OPN expression (A549 and H460), 100 nM peptide in media, FIG. 7A) was “decreased” and the “relative expression of TFGb1-r” value ([3]; A549 and H460 cell lines, FIG. 9A) was “significant decrease”. The “relative expression of N-cadherin” value ([3]; A549 and H460 cell lines, FIG. 9B) was “significant decrease”, the “relative expression of desmoplakin” value ([3]; A549 and H460 cell lines, FIG. 9C) was “significant increase” and the “relative expression of cytokeratin-20” value ([3]; A549 and H460 cell lines, FIG. 9D) was “significant increase”. For the same molecule, the “relative expression of the same EMT markers (TFGb1-r, N-cadherin, desmoplakin, cytokeratin-20)” value ([3]; H358 cell line with low endogenous OPN) was “lesser impact”, the “decrease in cell viability compared to untreated or scrambled peptide (cisplatin sensitivity)” value (A549 cells) was 2 fold and the invasive capacity ([4]; FIG. 7D) was “decrease”. For the same molecule, the invasion [4, 6] was “less impact”, the invasion ([4]; cells with high endogenous OPN expression (A549 and H460), 100 nM peptide in media, FIGS. 7B and 7D) was “decreased” and the “impact of exogenous rOPNa on invasion” value ([4]; exon 4 peptide added to exogenous rOPNa, FIG. 7D) was “blocks”. For the same molecule, the “binding of fluorescently labeled peptide to the surface of the NSCLC cell lines” value (NSCLC cell surface) was “specifically binds”.

“WQKPAPLDTDPKVYANS (Scrambled Sham Peptide) [scrambled sham control of the same length as the peptide mimic, reference compound]” was tested, and the “binding of fluorescently labeled peptide to the surface of the NSCLC cell lines” value (NSCLC cell surface) was “does not”.

In the case of “rOPNa: recombinant full-length OPN (rOPNa, R&D, Minneapolis, Minn.)”, the “displacement of fluorescent labeled exon 4 peptide from the NSCLC cell surface by competitor” value (NSCLC cell surface) is reported as “displaced by molar equivalents” and the “displacement of fluorescent labeled exon 4 peptide from the NSCLC cell surface by competitor” value (NSCLC cell surface; listed as recombinant OPN) is reported as “able to compete the peptide off the cell surface”.

B1: exon 4 peptide, 17-amino acid peptide mimic of the central region of OPNa exon 4, fluorescent (FAM) labeled (peptide)
peptide: KYPDAVATWLNPDPSQK
modifications: also: FAM label, position not given here
With B1 the fold decrease in cell viability under cisplatin (cisplatin sensitivity, A549) [5] was 2 fold.

Reference: patent publication US20150004157A1, “OSTEOPONTIN ISOFORM A INHIBITORS AND METHODS OF USE” (NEW YORK UNIVERSITY, priority 2012, published 2015)
